In patent US9233127B2, “Compositions and methods for CXCR4 signaling and umbilical cord blood stem cell engraftment” (University of Virginia Patent Foundation, priority 2012, dated 2016):

Assays:
[1] = test system: UCB MNC and CD4+45RA+ T-cells; test: Transmigration of UCB MNC and CD4+/45RA+ T-cells to SDF-1 without and with C3a priming; assay type: cell-based, human; settings: C3a 1 μg/ml 30 minutes; SDF-1 10 ng/ml, 3 h
Procedure: FIG. 30A-B—UCB MNC migration to SDF-1. Lymphocytes from SSC/FSC plots were gated to determine the number of transmigrating UCB CD45^+CD4^+ T-cells. A. The total number of transmigrated lymphocytes migrating without and with C3a priming prior to exposure to 10 ng/ml SDF-1 (mean±SD). […] All staining patterns of labeled cells were compared to cells incubated with APC- and PerCP-isotype antibodies to set negative quadrants gates.
FIG. 31A-B—UCB CD4^+45RA T-cell migration to SDF-1. […] A. Percentage of selected CD4^+/45RA^+ T-cells transmigrating without and with C3a priming prior to exposure to 10 ng/ml SDF-1 (mean±SD). B. CD45^+CD4^+ T-cells were observed only in gate P3 in contrast to the transmigration of MNC.
Cord blood MNC (FIG. 30A-B) isolated by Ficoll density gradient centrifugation or naïve CD4^+/45RA^+ T-cells (FIG. 31A-B below), isolated from MNC fractions (Miltenyi), were incubated in DMEM media with 1% human serum albumin or exposed to complement protein C3a (1 μg/ml) for 30 minutes at RT. […] Transmigrated cells were counted (Z Series Coulter counter) and stained with anti-CD4-PerCP anti-CD45-APC antibodies for 20 min in PBS buffer with 10% FBS prior to flow cytometric analyses on a […] in […], cells were fixed in 2% paraformaldehyde prior to acquisition. […]

CXCR4 = test: Western blot of CXCR4 in lipid raft membrane fractions of THP-1 cells; assay type: cell-based, human
Procedure: FIG. 15A-B—Western blot analysis of the colocalization of CXCR4 in fractions of cell membranes enriched in lipid rafts (fractions 3-5) and depleted of lipid rafts (fractions 9-11). Panel A: Hematopoietic THP-1 cells were stimulated by C3a (1 μg/mL) or desArgC3a (1 μg/mL) or not stimulated (control). CXCR4 was detected in these membrane fractions by Western blot along with ganglioside GM1, a marker of lipid rafts. Experiments were performed three times with similar results. Panel B: In control experiments, cells were pretreated for 1 hr with 10 mM MβCD. A representative study is shown.
Furthermore, direct evidence of the effect of priming agents on CXCR4 incorporation into membrane lipid rafts was obtained from Western blot analysis of CXCR4 expression in various fractions of cell membranes isolated according to their lipid raft content (Example 2, FIG. 15A-B). […] The role of C3a in incorporation of CXCR4 into membrane lipid rafts in UCB cells and involvement of other signaling molecules to this phenomenon will be evaluated in Aim 1.

C3a: 77 amino acid residue protein derived from the human complement C3a precursor; SEQ ID NO:1
migration of UCB MNC or naïve CD45+ CD4+ cells to a low SDF-1 gradient [1]: prime migration of a portion of the cell populations | incorporation of Rac-1 into membrane lipid rafts (CXCR4): increased the incorporation of Rac-1 | incorporation of CXCR4 into GM1-enriched membrane lipid rafts (fractions 3-5) (CXCR4; 1 μg/mL): stimulates incorporation of CXCR4
